From US20230011571A1, “SMALL MOLECULE FURIN INHIBITORS FOR TREATING INFECTIOUS DISEASES” (BP Asset V, Inc., priority 2019, published 2023)

Columns and labels:
Assay type in all cases: cell-based
dengue virus (DENV) = test: microbe, parasite or virus in culture; conditions: Dengue virus, Vero, 120 h, read-out: Percent viral inhibition DENY
[1] = tested on: Chikungunya virus (CHIKV); test: microbe, parasite or virus in culture; conditions: Chikungunya virus, Vero, 48 h, read-out: Percent viral inhibition CHKV
Marburg virus (MARV) = test: organism not typed; conditions: Vero, 72 h, read-out: Percent viral inhibition MARV

| Compound | inhibition at 1 µM (dengue virus (DENV)) | inhibition at 1 µM [1] | inhibition at 1 µM (Marburg virus (MARV)) |
| --- | --- | --- | --- |
| CC(=O)NCC1CCN(Cc2cc(Oc3ccc(N4CCN(CCC(=O)O)CC4)nc3)nc(-c3cc(F)cc(Br)c3)c2)CC1 [Example 116] | 6.7% | 10.4% | 4.3% |
| CN1CCN(c2ncc(Oc3cc(CN4CCC(CC(=O)O)CC4)cc(-c4cc(Cl)cc(Cl)c4)c3)cn2)CC1 [Example 117, 2-(1-((3′,5′-dichloro-5-((2-(4-methylpiperazin-1-yl)pyrimidin-5-yl)oxy)-[1,1′-biphenyl]-3-yl)methyl)piperidin-4-yl)acetic acid] | 28.6% | 18% | 43.6% |
| CC(=O)NCC1CCN(Cc2cc(Oc3cnc(N4CCCNCC4)nc3)nc(-c3cc(Cl)cc(Cl)c3)c2)CC1 [Example 118, N-((1-((2-((2-(1,4-diazepan-1-yl)pyrimidin-5-yl)oxy)-6-(3,5-dichlorophenyl)pyridin-4-yl)methyl)piperidin-4-yl)methyl)acetamide] | 15.6% | 0% | 0% |
| O=C(O)COC1CCN(Cc2cc(Oc3cnc(N4CCNCC4)nc3)nc(-c3cc(Cl)cc(Cl)c3)c2)CC1 [Example 122, 2-((1-((2-(3,5-dichlorophenyl)-6-((2-(piperazin-1-yl)pyrimidin-5-yl)oxy)pyridin-4-yl)methyl)piperidin-4-yl)oxy)acetic acid] | 33.7% | 35.5% | 23.6% |
| O=C(O)CC1CCN(Cc2cc(Oc3cnc(N4CCNCC(O)C4)nc3)nc(-c3cc(Cl)cc(Cl)c3)c2)CC1 (stereo not drawn) [Example 123, 2-(1-((2-(3,5-dichlorophenyl)-6-((2-(6-hydroxy-1,4-diazepan-1-yl)pyrimidin-5-yl)oxy)pyridin-4-yl)methyl)piperidin-4-yl)acetic acid] | 39.9% | 19.2% | 50.6% |
| NC1(CCO)CCN(c2ncc(Oc3cc(CN4CCC(CC(=O)O)CC4)cc(-c4cc(Cl)cc(Cl)c4)n3)cn2)CC1 [Example 124, 2-(1-((2-((2-(4-amino-4-(2-hydroxyethyl)piperidin-1-yl)pyrimidin-5-yl)oxy)-6-(3,5-dichlorophenyl)pyridin-4-yl)methyl)piperidin-4-yl) acetic acid] | 1.28% | 21.2% | 63.8% |
| CN1CCCN(c2ncc(Oc3cc(CN4CCC(CC(=O)O)CC4)cc(-c4cc(Cl)cc(Cl)c4)n3)cn2)CC1 [Example 126, 2-(1-((2-(3,5-dichlorophenyl)-6-((2-(4-methyl-1,4-diazepan-1-yl)pyrimidin-5-yl)oxy)pyridin-4-yl)methyl)piperidin-4-yl)acetic acid] | 8.34% | 23.6% | 38.5% |
| CC(CC(=O)O)C1CN(Cc2cc(Oc3cnc(N4CCN(C)CC4)nc3)nc(-c3cc(Cl)cc(Cl)c3)c2)C1 (stereo not drawn) [Example 127, 3-(1-((2-(3,5-dichlorophenyl)-6-((2-(4-methylpiperazin-1-yl)pyrimidin-5-yl)oxy)pyridin-4-yl)methyl)azetidin-3-yl)butanoic acid] | 0% | 26% | 52.1% |
| CN1CCN(c2ncc(Oc3cc(CN4CCC(OCC(=O)O)C4)cc(-c4cc(Cl)cc(Cl)c4)n3)cn2)CC1 (stereo not drawn) [Example 128, 2-((1-((2-(3,5-dichlorophenyl)-6-((2-(4-methylpiperazin-1-yl)pyrimidin-5-yl)oxy)pyridin-4-yl)methyl)pyrrolidin-3-yl)oxy)acetic acid] | 7.97% | 3.67% | 51.4% |
| CN1CCN(c2ncc(Oc3cc(CN4CC5CC(CC(=O)O)CC5C4)cc(-c4cc(Cl)cc(Cl)c4)n3)cn2)CC1 (stereo not drawn) [Example 129, 2-(2-((2-(3,5-dichlorophenyl)-6-((2-(4-methylpiperazin-1-yl)pyrimidin-5-yl)oxy)pyridin-4-yl)methyl)octahydrocyclopenta[c]pyrrol-5-yl)acetic acid] | 38.5% | 23.6% | 29.8% |
